# Measured values published in paper PMC4980083 (JCI insight, 2016).
# Several values for one entry are separate records, joined by “and”; a condition that tells them apart may be missing. Equal values may be shown once.
# What was measured:
# [1] = In vivo biodistribution in mice bearing LNCaP95 and PC3 xenografts; parameters: species or system male castrated NOD/SCID mice
# [2] = molecular target: T1, recombinant full-length AR (Homo sapiens, UniProt P10275); assay: Cell-free binding to recombinant full-length AR; conditions: 16 hours at room temperature
# T1 sequence (P10275 1-920): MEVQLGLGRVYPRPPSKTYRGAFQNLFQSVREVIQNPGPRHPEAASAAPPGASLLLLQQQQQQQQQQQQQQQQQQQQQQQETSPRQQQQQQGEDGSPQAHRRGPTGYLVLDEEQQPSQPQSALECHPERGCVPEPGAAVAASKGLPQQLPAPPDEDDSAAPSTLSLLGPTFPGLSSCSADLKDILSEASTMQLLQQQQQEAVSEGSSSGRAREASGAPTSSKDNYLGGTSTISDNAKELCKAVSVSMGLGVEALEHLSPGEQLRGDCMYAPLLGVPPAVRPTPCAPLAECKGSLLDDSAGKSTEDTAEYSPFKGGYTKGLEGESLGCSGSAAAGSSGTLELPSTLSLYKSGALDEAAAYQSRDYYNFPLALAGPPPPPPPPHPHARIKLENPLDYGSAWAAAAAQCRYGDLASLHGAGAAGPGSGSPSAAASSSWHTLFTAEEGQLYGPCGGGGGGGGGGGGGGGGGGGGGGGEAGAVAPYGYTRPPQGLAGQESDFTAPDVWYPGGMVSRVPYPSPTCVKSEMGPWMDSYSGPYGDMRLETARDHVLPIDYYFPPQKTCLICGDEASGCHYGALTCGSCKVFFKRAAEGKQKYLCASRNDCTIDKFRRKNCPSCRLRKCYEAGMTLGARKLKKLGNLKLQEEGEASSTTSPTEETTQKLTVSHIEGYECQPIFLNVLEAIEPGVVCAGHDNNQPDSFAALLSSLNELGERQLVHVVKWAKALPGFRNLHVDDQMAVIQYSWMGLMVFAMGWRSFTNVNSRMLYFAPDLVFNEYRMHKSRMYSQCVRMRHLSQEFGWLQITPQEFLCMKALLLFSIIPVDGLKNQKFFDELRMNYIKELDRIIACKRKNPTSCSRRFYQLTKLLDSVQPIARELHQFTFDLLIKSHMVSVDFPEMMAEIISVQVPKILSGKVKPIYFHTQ
# [3] = Micro-SPECT/CT imaging of mice bearing LNCaP95 and PC3 xenografts; format: in vivo, male castrated NOD/SCID mice
# [4] = Biodistribution with blocking by excess cold EPI-002; format: in vivo, male castrated NOD/SCID mice; conditions: excess cold EPI-002 50 mg/kg body weight; 1 hour
# endogenous AR = assay: Binding to endogenous AR in LNCaP95 cells; format: cell-based, human; conditions: 16 hours
substance,measurement,setting,value
[^123I]15-iodoEPI002 [^123I-EPI-002],Bladder uptake,[1]; 0 h after injection,0.79 ± 0.49 %ID/g
same,Blood uptake,[1]; 0 h after injection,12.57 ± 2.03 %ID/g
same,Bone uptake,[1]; 0 h after injection,1.09 ± 0.75 %ID/g
same,Brain uptake,[1]; 0 h after injection,1.29 ± 0.55 %ID/g
same,Heart uptake,[1]; 0 h after injection,7.62 ± 1.86 %ID/g
same,Kidney uptake,[1]; 0 h after injection,5.57 ± 2.37 %ID/g
same,Large intestine uptake,[1]; 0 h after injection,0.70 ± 0.42 %ID/g
same,Liver uptake,[1]; 0 h after injection,5.03 ± 3.29 %ID/g
same,Lung uptake,[1]; 0 h after injection,5.19 ± 1.59 %ID/g
same,Muscle uptake,[1]; 0 h after injection,1.60 ± 1.89 %ID/g
same,Negative tumor (PC3) uptake,[1]; 0 h after injection,0.19 ± 0.06 %ID/g
same,Positive tumor (LNCaP95) uptake,[1]; 0 h after injection,0.17 ± 0.06 %ID/g
same,Ratio LNCaP95/PC3,[1]; 0 h after injection,0.9
same,Ratio LNCaP95/blood,[1]; 0 h after injection,0.01
same,Ratio LNCaP95/kidney,[1]; 0 h after injection,0.03
same,Ratio LNCaP95/liver,[1]; 0 h after injection,0.04
same,Ratio LNCaP95/muscle,[1]; 0 h after injection,0.22
same,Small intestine uptake,[1]; 0 h after injection,2.44 ± 1.05 %ID/g
same,Spleen uptake,[1]; 0 h after injection,1.15 ± 1.04 %ID/g
same,Stomach uptake,[1]; 0 h after injection,1.80 ± 1.60 %ID/g
same,Bladder uptake,[1]; 1 h after injection,1.47 ± 0.65 %ID/g
same,Blood uptake,[1]; 1 h after injection,0.74 ± 0.30 %ID/g
same,Bone uptake,[1]; 1 h after injection,1.03 ± 0.31 %ID/g
same,Brain uptake,[1]; 1 h after injection,1.68 ± 0.67 %ID/g
same,Gallbladder uptake,[1]; 1 h after injection,10.09 ± 6.60 %ID/g
same,Heart uptake,[1]; 1 h after injection,2.25 ± 0.50 %ID/g
same,Kidney uptake,[1]; 1 h after injection,3.07 ± 0.90 %ID/g
same,Large intestine uptake,[1]; 1 h after injection,1.22 ± 0.34 %ID/g
same,Liver uptake,[1]; 1 h after injection,7.76 ± 0.95 %ID/g
same,Lung uptake,[1]; 1 h after injection,2.40 ± 1.01 %ID/g
same,Muscle uptake,[1]; 1 h after injection,1.34 ± 0.40 %ID/g
same,Ratio LNCaP95/PC3,[1]; 1 h after injection,3.2
same,Ratio LNCaP95/blood,[1]; 1 h after injection,3.58 ± 0.66 and 3.58
same,Ratio LNCaP95/kidney,[1]; 1 h after injection,0.71
same,Ratio LNCaP95/liver,[1]; 1 h after injection,0.29
same,Ratio LNCaP95/muscle,[1]; 1 h after injection,1.72
same,Small intestine uptake,[1]; 1 h after injection,7.43 ± 5.25 %ID/g
same,Spleen uptake,[1]; 1 h after injection,0.96 ± 0.23 %ID/g
same,Stomach uptake,[1]; 1 h after injection,1.73 ± 0.69 %ID/g
same,Bladder uptake,[1]; 2 h after injection,1.13 ± 0.55 %ID/g
same,Blood uptake,[1]; 2 h after injection,0.31 ± 0.08 %ID/g
same,Bone uptake,[1]; 2 h after injection,0.51 ± 0.11 %ID/g
same,Brain uptake,[1]; 2 h after injection,0.83 ± 0.21 %ID/g
same,Gallbladder uptake,[1]; 2 h after injection,2.12 ± 3.60 %ID/g
same,Heart uptake,[1]; 2 h after injection,1.04 ± 0.22 %ID/g
same,Kidney uptake,[1]; 2 h after injection,1.43 ± 0.58 %ID/g
same,Large intestine uptake,[1]; 2 h after injection,1.90 ± 2.02 %ID/g
same,Liver uptake,[1]; 2 h after injection,4.81 ± 1.13 %ID/g
same,Lung uptake,[1]; 2 h after injection,0.78 ± 0.19 %ID/g
same,Muscle uptake,[1]; 2 h after injection,0.49 ± 0.18 %ID/g
same,Negative tumor (PC3) uptake,[1]; 2 h after injection,0.35 ± 0.14 %ID/g
same,Positive tumor (LNCaP95) uptake,[1]; 2 h after injection,1.13 ± 0.16 %ID/g
same,Ratio LNCaP95/PC3,[1]; 2 h after injection,3.3
same,Ratio LNCaP95/blood,[1]; 2 h after injection,3.74
same,Ratio LNCaP95/kidney,[1]; 2 h after injection,0.96
same,Ratio LNCaP95/liver,[1]; 2 h after injection,0.24
same,Ratio LNCaP95/muscle,[1]; 2 h after injection,2.51
same,Small intestine uptake,[1]; 2 h after injection,6.29 ± 3.72 %ID/g
same,Spleen uptake,[1]; 2 h after injection,0.71 ± 0.34 %ID/g
same,Stomach uptake,[1]; 2 h after injection,0.68 ± 0.31 %ID/g
same,Bladder uptake,[1]; 4 h after injection,0.52 ± 0.17 %ID/g
same,Blood uptake,[1]; 4 h after injection,0.25 ± 0.07 %ID/g
same,Bone uptake,[1]; 4 h after injection,0.39 ± 0.13 %ID/g
same,Brain uptake,[1]; 4 h after injection,0.55 ± 0.18 %ID/g
same,Gallbladder uptake,[1]; 4 h after injection,0.35 ± 0.03 %ID/g
same,Heart uptake,[1]; 4 h after injection,0.88 ± 0.18 %ID/g
same,Kidney uptake,[1]; 4 h after injection,1.05 ± 0.11 %ID/g
same,Large intestine uptake,[1]; 4 h after injection,66 %ID/g and 66.53 ± 34.05 %ID/g
same,Liver uptake,[1]; 4 h after injection,4.30 ± 0.68 %ID/g
same,Lung uptake,[1]; 4 h after injection,0.75 ± 0.24 %ID/g
same,Muscle uptake,[1]; 4 h after injection,0.45 ± 0.13 %ID/g
same,Negative tumor (PC3) uptake,[1]; 4 h after injection,0.50 ± 0.17 %ID/g
same,Positive tumor (LNCaP95) uptake,[1]; 4 h after injection,1.04 ± 0.14 %ID/g
same,Ratio LNCaP95/PC3,[1]; 4 h after injection,2.1
same,Ratio LNCaP95/blood,[1]; 4 h after injection,4.38
same,Ratio LNCaP95/kidney,[1]; 4 h after injection,1.00
same,Ratio LNCaP95/liver,[1]; 4 h after injection,0.25
same,Ratio LNCaP95/muscle,[1]; 4 h after injection,2.57
same,Small intestine uptake,[1]; 4 h after injection,6.25 ± 2.18 %ID/g
same,Spleen uptake,[1]; 4 h after injection,0.55 ± 0.24 %ID/g
same,Stomach uptake,[1]; 4 h after injection,0.29 ± 0.19 %ID/g
same,Bladder uptake,[1]; 6 h after injection,0.39 ± 0.21 %ID/g
same,Blood uptake,[1]; 6 h after injection,0.17 ± 0.03 %ID/g
same,Bone uptake,[1]; 6 h after injection,0.21 ± 0.08 %ID/g
same,Brain uptake,[1]; 6 h after injection,0.39 ± 0.12 %ID/g
same,Gallbladder uptake,[1]; 6 h after injection,9.64 ± 16.02 %ID/g
same,Heart uptake,[1]; 6 h after injection,0.51 ± 0.13 %ID/g
same,Kidney uptake,[1]; 6 h after injection,0.65 ± 0.24 %ID/g
same,Large intestine uptake,[1]; 6 h after injection,47.42 ± 7.58 %ID/g
same,Liver uptake,[1]; 6 h after injection,2.92 ± 0.94 %ID/g
same,Lung uptake,[1]; 6 h after injection,0.50 ± 0.25 %ID/g
same,Muscle uptake,[1]; 6 h after injection,0.24 ±0.09 %ID/g
same,Negative tumor (PC3) uptake,[1]; 6 h after injection,0.49 ± 0.01 %ID/g
same,Positive tumor (LNCaP95) uptake,[1]; 6 h after injection,0.52 ± 0.10 %ID/g
same,Ratio LNCaP95/PC3,[1]; 6 h after injection,1.1
same,Ratio LNCaP95/blood,[1]; 6 h after injection,3.12
same,Ratio LNCaP95/kidney,[1]; 6 h after injection,0.85
same,Ratio LNCaP95/liver,[1]; 6 h after injection,0.21
same,Ratio LNCaP95/muscle,[1]; 6 h after injection,2.56
same,Small intestine uptake,[1]; 6 h after injection,2.37 ± 1.43 %ID/g
same,Spleen uptake,[1]; 6 h after injection,0.30 ± 0.18 %ID/g
same,Stomach uptake,[1]; 6 h after injection,0.19 ± 0.08 %ID/g
same,Bladder uptake,[1]; 12 h after injection,0.09 ± 0.04 %ID/g
same,Blood uptake,[1]; 12 h after injection,0.07 ± 0.04 %ID/g
same,Bone uptake,[1]; 12 h after injection,0.07 ± 0.05 %ID/g
same,Brain uptake,[1]; 12 h after injection,0.10 ± 0.05 %ID/g
same,Gallbladder uptake,[1]; 12 h after injection,3.12 ± 0.81 %ID/g
same,Heart uptake,[1]; 12 h after injection,0.17 ± 0.10 %ID/g
same,Kidney uptake,[1]; 12 h after injection,0.16 ± 0.08 %ID/g
same,Large intestine uptake,[1]; 12 h after injection,27.02 ± 14.89 %ID/g
same,Liver uptake,[1]; 12 h after injection,1.06 ± 0.48 %ID/g
same,Lung uptake,[1]; 12 h after injection,0.16 ± 0.08 %ID/g
same,Muscle uptake,[1]; 12 h after injection,0.06 ± 0.03 %ID/g
same,Negative tumor (PC3) uptake,[1]; 12 h after injection,0.13 ± 0.13 %ID/g
same,Positive tumor (LNCaP95) uptake,[1]; 12 h after injection,0.15 ± 0.08 %ID/g
same,Ratio LNCaP95/PC3,[1]; 12 h after injection,1.2
same,Ratio LNCaP95/blood,[1]; 12 h after injection,2.22
same,Ratio LNCaP95/kidney,[1]; 12 h after injection,0.92
same,Ratio LNCaP95/liver,[1]; 12 h after injection,0.14
same,Ratio LNCaP95/muscle,[1]; 12 h after injection,2.98
same,Small intestine uptake,[1]; 12 h after injection,2.14 ± 1.49 %ID/g
same,Spleen uptake,[1]; 12 h after injection,0.07 ± 0.03 %ID/g
same,Stomach uptake,[1]; 12 h after injection,1.78 ± 1.27 %ID/g
same,binding to recombinant full-length AR,[2],binds to recombinant full-length AR
same,LNCaP95 tumor uptake (SPECT),[3]; 2 hours after injection,1.09% ± 0.41%
same,thyroid uptake,[3]; blocking with EPI-002,2.32% ± 0.33%
same,thyroid uptake,[3]; unblocked,approximately 2.31% ± 0.59%
same,decrease in ^123I-EPI-002 accumulation in the LNCaP95 xenograft by blocking,[4],74%
same,binding to endogenous AR in LNCaP95 cells,endogenous AR,binds covalently and specifically to AR
